Results from publication PMC4281095 (Journal of Medicinal Chemistry, 2014).

Assays:
CpIMPDH [1] = molecular target: T1, CpIMPDH (Cryptosporidium parvum, UniProt Q8T6T2); details: read-out: CpIMPDH IC50; cited from earlier work
T1 sequence (Q8T6T2 1-400): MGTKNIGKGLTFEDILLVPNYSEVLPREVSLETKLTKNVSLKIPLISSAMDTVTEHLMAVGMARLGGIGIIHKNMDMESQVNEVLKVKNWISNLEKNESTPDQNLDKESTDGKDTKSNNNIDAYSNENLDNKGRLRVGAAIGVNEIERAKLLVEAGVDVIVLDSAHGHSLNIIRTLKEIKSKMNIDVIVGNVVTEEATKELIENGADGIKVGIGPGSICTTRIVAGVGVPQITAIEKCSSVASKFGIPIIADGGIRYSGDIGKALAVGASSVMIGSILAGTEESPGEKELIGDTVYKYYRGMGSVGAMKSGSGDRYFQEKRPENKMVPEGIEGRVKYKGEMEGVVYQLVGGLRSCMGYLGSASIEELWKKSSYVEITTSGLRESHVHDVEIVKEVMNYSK

hIMPDH1 = details: read-out: hIMPDH1 Ki; cited from earlier work
CpIMPDH [2] = molecular target: T1, CpIMPDH; test: CpIMPDH inhibition, NADH production monitored by fluorescence; details: for fold loss of CpIMPDH potency / inhibition: relative to 8k; for fold increase in CpIMPDH activity: relative to 8a; for CpIMPDH inhibition, result in words: qualitative statement
hIMPDH2 = hIMPDH2 (Homo sapiens, UniProt P12268); test: Assessment of hIMPDH2 inhibition, NADH production; format: biochemical; details: read-out: hIMPDH2 inhibition

| SMILES | CpIMPDH inhibition, result in words (CpIMPDH [2]) | further results |
| --- | --- | --- |
| COc1c(C)c2c(c(O)c1C/C=C(\C)CCC(=O)O)C(=O)OC2 [mycophenolic acid] | – | IC50 (CpIMPDH [1]): ~10 µM; Ki (hIMPDH1): 0.033 µM |
| COc1cc(NC(=O)C(C)n2ncc3c(=O)oc4ccccc4c32)ccc1Cl (centres unmarked) [8m] | – | fold loss of CpIMPDH potency / inhibition (CpIMPDH [2]): 3 fold |
| O=C(Cn1ncc2c(=O)oc3ccccc3c21)Nc1ccc(F)cc1 [8d] | – | fold increase in CpIMPDH activity (CpIMPDH [2]): 3 fold |
| O=C(Cn1ncc2c(=O)oc3ccccc3c21)Nc1ccc2[nH]ccc2c1 [13c] | only weak or no inhibitory activity | – |
| COc1cc(N(C)C(=O)Cn2ncc3c(=O)oc4ccccc4c32)ccc1Cl [8l] | loss of activity | – |
| COc1ccc(NC(=O)Cn2ncc3c(=O)oc4ccccc4c32)cc1OC [8i] | loss of enzyme inhibition | – |
| COc1cccc(NC(=O)Cn2ncc3c(=O)oc4ccccc4c32)c1 [8a, 4-oxo-N-(3-methoxyphenyl)-[1]benzopyrano[4,3-c]pyrazole-1(4H)-acetamide] | – | inhibition at 5 µM (hIMPDH2): < 20% |
| COc1cc(NC(=O)Cn2ncc3c2-c2ccccc2OC3)ccc1Cl [13e] | – | fold loss of CpIMPDH potency / inhibition (CpIMPDH [2]): 3 fold |
| O=C(Cn1ncc2c(=O)oc3ccccc3c21)Nc1ccc(C(F)(F)F)cc1 [8e] | – | fold increase in CpIMPDH activity (CpIMPDH [2]): 3 fold |

Further lines, with some results ahead:

| CpIMPDH inhibition, result in words (CpIMPDH [2]) | SMILES | further results |
| --- | --- | --- |
| loss of inhibition | O=C(Cn1ncc2c(=O)oc3ccccc3c21)Nc1cccc(Cl)c1 [8b] | – |
| no inhibitory activity | O=C(Cn1ncc2c(=O)oc3ccccc3c21)Nc1ccccc1Cl [8c] | – |
| only weak or no inhibitory activity | O=C(Cn1ncc2c(=O)oc3ccccc3c21)Nc1ccc2[nH]cnc2c1 [13a] | – |
| no inhibition activity | O=C(Cn1ncc2c(=O)oc3ccccc3c21)Nc1ccc(Cl)cc1Cl [8g] | – |
